Like-named read-outs stand apart in the source and are kept apart here.
Assays:
[1] = test system: Phosphorylation of ERK1/2 in A549 cells; assay: Phospho-ERK1/2 MSD assay in A549 cells; assay type: cell-based; settings: read-out: p-ERK IC50 (2 h, A549; μM), 2 h compound treatment, A549 cells, EGF stimulated
In short: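 MSD electrochemiluminescent read-out of phospho-ERK1/2 in RIPA lysates. Cells in RPMI 1640 with 10% FBS received titrated compound for 2 or 4 h, then 10 ng/mL EGF for 10 min before ice-cold PBS wash and lysis.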

[2] = test system: Phosphorylation of ERK1/2 in MIA PaCa-2 cells; assay: Phospho-ERK1/2 MSD assay in MIA PaCa-2 cells; assay type: cell-based; settings: read-out: p-ERK IC50 (2 h, MiaPaCa-2; μM), 2 h compound treatment, MIA PaCa-2 cells, EGF stimulated
In short: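 Phospho-ERK1/2 measured by MSD electrochemiluminescence kit in RIPA lysates of MIA PaCa-2 cells. Cells were treated with compound titrations for 2 or 4 h at 37 °C, 5% CO2, followed by a 10 min pulse of 10 ng/mL EGF.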

[3] = biological target: GDP-bound KRAS protein (aa 1-169), containing both G12C and C118A amino acid substitutions (Homo sapiens (Human), UniProt P01116, C118A/G12C); assay: Coupled nucleotide exchange assay (SOS-mediated nucleotide exchange, AlphaScreen); assay type: biochemical; settings: 5 min compound pre-incubation; for IC50: read-out: Coupled exchange IC50 (5 min; μM)
Sequence of GDP-bound KRAS protein (aa 1-169), containing both G12C and C118A amino acid substitutions (P01116 other isoform, or with tags, fused parts or gaps G12C/C118A): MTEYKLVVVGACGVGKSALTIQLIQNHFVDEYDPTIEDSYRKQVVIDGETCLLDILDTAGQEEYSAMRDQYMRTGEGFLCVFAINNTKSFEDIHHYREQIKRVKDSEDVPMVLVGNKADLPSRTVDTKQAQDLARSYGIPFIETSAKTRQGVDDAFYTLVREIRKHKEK

C#Cc1ccc(F)c(-c2nc3c(cc2Cl)c(N2C[C@@H](C)N(C(=O)C=C)C[C@@H]2C)nc(=O)n3-c2c(C)ccnc2C(C)C)c1 (atropisomer, axis not shown; (M)) [Example 226, (M)-6-Chloro-4-[(2S,5R)-2,5-dimethyl-4-prop-2-enoyl-piperazin-1-yl]-7-(5-ethynyl-2-fluoro-phenyl)-1-(2-isopropyl-4-methyl-3-pyridyl)pyrido[2,3-d]pyrimidin-2-one]
IC50 [1]: > 7.5 µM | IC50 [2]: 0.063 µM | IC50 [3]: 0.04 µM

C=CC(=O)N1C[C@H](C)N(c2nc(=O)n3c4nc(c(Cl)cc24)-c2ccccc2C/C=C\Cc2ccccc2-3)C[C@H]1C (atropisomer, axis not shown; (P)) [Example 146-3]
IC50 ([1]; Homo sapiens, A549, 2 h): > 7.5 µM | IC50 [2]: 4.26 µM | IC50 [3]: 7.03 µM

C=CC(=O)N1C[C@H](C)N(c2nc(=O)n(-c3c(C)ccnc3C(C)C)c3nc(-c4ccccc4C(C)O)c(Cl)cc23)C[C@H]1C (mixture of isomers) [Example 92-43, (M)-6-Chloro-4-[(2S,5R)-2,5-dimethyl-4-prop-2-enoyl-piperazin-1-yl]-7-[2-[(1RS)-1-hydroxyethyl]phenyl]-1-(2-isopropyl-4-methyl-3-pyridyl)pyrido [2,3-d]pyrimidin-2-one]
IC50 ([1]; Homo sapiens, A549, 2 h): > 7.5 µM | IC50 ([2]; Homo sapiens, MIA PaCa-2, 2 h): 0.076 µM | Coupled exchange IC50 (5 min; μM) [3]: 0.054 µM

C=CC(=O)N1C[C@H](C)N(c2nc(=O)n(-c3c(N(C)C)ccnc3C(C)C)c3nc(-c4ccccc4F)c(Cl)cc23)C[C@H]1C (single isomer, unassigned) [Example 55-51-1]
IC50 [1]: > 7.5 µM | IC50 [2]: 0.157 µM | IC50 [3]: 0.298 µM

C=CC(=O)N1C[C@H](C)N(c2nc(=O)n(-c3c(N(C)C)ccnc3C(C)C)c3nc(-c4ccccc4F)c(Cl)cc23)C[C@H]1C (single isomer, unassigned) [Example 55-51-2]
IC50 [1]: > 7.5 µM | IC50 [2]: 0.037 µM | IC50 [3]: 0.07 µM

C=CC(=O)N1C[C@H](C)N(c2nc(=O)n(-c3c(CC)ccnc3C(C)C)c3nc(-c4ccccc4F)c(Cl)cc23)C[C@H]1C (single isomer, unassigned) [Example 55-58-1]
IC50 [1]: > 7.5 µM | IC50 [2]: 0.107 µM | IC50 [3]: 0.03 µM

C=CC(=O)N1C[C@H](C)N(c2nc(=O)n(-c3c(CC)ccnc3C(C)C)c3nc(-c4ccccc4F)c(Cl)cc23)C[C@H]1C (single isomer, unassigned) [Example 55-58-2]
IC50 [1]: > 7.5 µM | IC50 [2]: 0.101 µM | IC50 [3]: 0.092 µM

C=CC(=O)N1C[C@H](C)N(c2nc(=O)n(-c3c(CN4CCCC4)cccc3C(C)C)c3nc(-c4ccccc4F)c(Cl)cc23)C[C@H]1C (single isomer, unassigned) [Example 80-10-2]
IC50 [1]: > 7.5 µM | IC50 [2]: 0.04 µM | IC50 [3]: 0.053 µM

C=CC(=O)N1C[C@H](C)N(c2nc(=O)n(-c3c(CN(C)C)cccc3C(C)C)c3nc(-c4ccccc4F)c(Cl)cc23)C[C@H]1C (single isomer, unassigned) [Example 80-14-2]
IC50 ([1]; Homo sapiens, A549, 2 h): > 7.5 µM | IC50 ([2]; Homo sapiens, MIA PaCa-2, 2 h): 0.031 µM | IC50 [3]: 0.061 µM

C=CC(=O)N1C[C@H](C)N(c2nc(=O)n(-c3c(CN(C)C)ccnc3C(C)C)c3nc(-c4ccccc4F)c(Cl)cc23)C[C@H]1C (single isomer, unassigned) [Example 80-16-1]
IC50 ([1]; Homo sapiens, A549, 2 h): > 7.5 µM | IC50 ([2]; Homo sapiens, MIA PaCa-2, 2 h): 0.041 µM | IC50 [3]: 0.061 µM

C=CC(=O)N1C[C@H](C)N(c2nc(=O)n(-c3c(CN(C)C)ncnc3C(C)C)c3nc(-c4ccccc4F)c(Cl)cc23)C[C@H]1C (single isomer, unassigned) [Example 80-18-2]
IC50 ([1]; Homo sapiens, A549, 2 h): > 7.5 µM | IC50 ([2]; Homo sapiens, MIA PaCa-2, 2 h): 0.044 µM | IC50 [3]: 0.11 µM

C=CC(=O)N1C[C@H](C)N(c2nc(=O)n(-c3c(C)cc(CN(C)C)cc3C(C)C)c3nc(-c4ccccc4F)c(F)cc23)C[C@H]1C (single isomer, unassigned) [Example 80-20-2]
IC50 [1]: > 7.5 µM | IC50 [2]: 0.295 µM | IC50 [3]: 0.368 µM

C=CC(=O)N1C[C@H](C)N(c2nc(=O)n(-c3c(C)cc(CN(C)C)cc3C(C)C)c3nc(-c4c(O)cccc4F)c(F)cc23)C[C@H]1C (single isomer, unassigned) [Example 80-21-2]
IC50 [1]: > 7.5 µM | IC50 [2]: 0.072 µM | IC50 [3]: 0.061 µM

C=CC(=O)N1C[C@H](C)N(c2nc(=O)n(-c3c(C(C)C)cnn3C(C)C)c3nc(-c4ccccc4F)c(Cl)cc23)C[C@H]1C (single isomer, unassigned) [Example 100-1-1]
IC50 [1]: > 7.5 µM | IC50 [2]: 0.091 µM | IC50 [3]: 0.061 µM

C=CC(=O)N1C[C@H](C)N(c2nc(=O)n(-c3c(C(C)C)cnn3C(C)C)c3nc(-c4ccccc4F)c(Cl)cc23)C[C@H]1C (single isomer, unassigned) [Example 100-1-2]
IC50 [1]: > 7.5 µM | IC50 [2]: 0.098 µM | IC50 [3]: 0.062 µM

C=CC(=O)N1C[C@H](C)N(c2nc(=O)n(-c3c(Cl)ncnc3C(C)C)c3nc(-c4ccccc4F)c(Cl)cc23)C[C@H]1C (single isomer, unassigned) [Example 102-5-1]
IC50 [1]: > 7.5 µM | IC50 [2]: 0.058 µM | IC50 [3]: 0.031 µM

C=CC(=O)N1C[C@H](C)N(c2nc(=O)n(-c3c(Cl)ncnc3C(C)C)c3nc(-c4ccccc4F)c(Cl)cc23)C[C@H]1C (single isomer, unassigned) [Example 102-5-2]
IC50 [1]: > 7.5 µM | IC50 [2]: 0.873 µM | IC50 [3]: 0.173 µM

C=CC(=O)N1C[C@H](C)N(c2nc(=O)n(-c3c(Cl)ncnc3C(C)C)c3nc(-c4ccccc4C)c(Cl)cc23)C[C@H]1C (single isomer, unassigned) [Example 102-6-1]
IC50 [1]: > 7.5 µM | IC50 [2]: 0.056 µM | IC50 [3]: 0.094 µM

C=CC(=O)N1C[C@H](C)N(c2nc(=O)n(-c3c(C)cc(P(C)(C)=O)cc3C(C)C)c3nc(-c4ccccc4F)c(Cl)cc23)C[C@H]1C (single isomer, unassigned) [Example 102-7-1]
IC50 ([1]; Homo sapiens, A549, 2 h): > 7.5 µM | IC50 ([2]; Homo sapiens, MIA PaCa-2, 2 h): 1.06 µM | IC50 [3]: 0.181 µM

C=CC(=O)N1C[C@H](C)N(c2nc(=O)n(-c3c(N(C)C)ccnc3C(C)C)c3nc(-c4ccccc4C(C)C)c(Cl)cc23)C[C@H]1C (single isomer, unassigned) [Example 103-1-2]
IC50 [1]: > 7.5 µM | IC50 [2]: 0.039 µM | IC50 [3]: 0.053 µM

C=CC(=O)N1C[C@H](C)N(c2nc(=O)n(-c3c(N(CC)CC)ccnc3C(C)C)c3nc(-c4ccccc4C(C)C)c(Cl)cc23)C[C@H]1C (single isomer, unassigned) [Example 103-6-2]
IC50 [1]: 5.19 µM | IC50 [2]: 0.26 µM | IC50 [3]: 0.112 µM

C=CC(=O)N1C[C@H](C)N(c2nc(=O)n(-c3c(N(C)C)ccnc3C(C)C)c3nc(-c4ccccc4C)c(Cl)cc23)C[C@H]1C (single isomer, unassigned) [Example 103-7-2]
IC50 [1]: > 7.5 µM | IC50 [2]: 0.052 µM | IC50 [3]: 0.088 µM

C=CC(=O)N1C[C@H](C)N(c2nc(=O)n(-c3c(C)ccnc3C(C)C)c3nc(-c4ccccc4F)c(Cl)nc23)C[C@H]1C (single isomer, unassigned) [Example 106-6-2]
IC50 ([1]; Homo sapiens, A549, 2 h): > 7.5 µM | IC50 ([2]; Homo sapiens, MIA PaCa-2, 2 h): 0.301 µM | IC50 [3]: 0.059 µM

C=CC(=O)N1C[C@H](C)N(c2nc(=O)n(-c3c(C(C)C)ncnc3C3CC3)c3nc(-c4ccccc4F)c(Cl)cc23)C[C@H]1C (single isomer, unassigned) [Example 108-1-1]
IC50 [1]: > 7.5 µM | IC50 [2]: 0.021 µM | IC50 [3]: 0.006 µM

C=CC(=O)N1C[C@H](C)N(c2nc(=O)n(-c3c(C(C)C)ncnc3C3CC3)c3nc(-c4ccccc4F)c(Cl)cc23)C[C@H]1C (single isomer, unassigned) [Example 108-1-2]
IC50 [1]: > 7.5 µM | IC50 [2]: 0.054 µM | IC50 [3]: 0.008 µM

C=CC(=O)N1C[C@H](C)N(c2nc(=O)n(-c3c(C(C)C)ncnc3C3CC3)c3nc(-c4ccccc4C)c(Cl)cc23)C[C@H]1C (single isomer, unassigned) [Example 108-2-1]
IC50 [1]: > 7.5 µM | IC50 [2]: 0.046 µM | IC50 [3]: 0.035 µM

C=CC(=O)N1C[C@H](C)N(c2nc(=O)n(-c3c(C(C)C)ncnc3C3CC3)c3nc(-c4ccccc4C)c(Cl)cc23)C[C@H]1C (single isomer, unassigned) [Example 108-2-2]
IC50 [1]: > 7.5 µM | IC50 [2]: 0.148 µM | IC50 [3]: 0.181 µM

C=CC(=O)N1C[C@H](C)N(c2nc(=O)n(-c3c(CC)ncnc3C(C)C)c3nc(-c4ccccc4F)c(Cl)cc23)C[C@H]1C (single isomer, unassigned) [Example 109-1-1]
IC50 [1]: > 7.5 µM | IC50 [2]: 0.045 µM | IC50 [3]: 0.06 µM

C=CC(=O)N1C[C@H](C)N(c2nc(=O)n(-c3c(CC)ncnc3C(C)C)c3nc(-c4ccccc4F)c(Cl)cc23)C[C@H]1C (single isomer, unassigned) [Example 109-1-2]
IC50 [1]: > 7.5 µM | IC50 [2]: 0.08 µM | IC50 [3]: 0.209 µM

C=CC(=O)N1C[C@H](C)N(c2nc(=O)n(-c3c(CC)ncnc3C(C)C)c3nc(-c4ccccc4C)c(Cl)cc23)C[C@H]1C (single isomer, unassigned) [Example 109-2-1]
IC50 [1]: > 7.5 µM | IC50 [2]: 0.065 µM | IC50 [3]: 0.059 µM

C=CC(=O)N1C[C@H](C)N(c2nc(=O)n(-c3c(C)cc(CN(C)C)cc3C(C)C)c3nc(-c4ccccc4F)c(Cl)cc23)C[C@H]1C (single isomer, unassigned) [Example 121-3]
IC50 ([1]; Homo sapiens, A549, 2 h): > 7.5 µM | IC50 ([2]; Homo sapiens, MIA PaCa-2, 2 h): 0.027 µM | Coupled exchange IC50 (5 min; μM) [3]: 0.066 µM

Source: patent US11285156B2, “Substituted piperazines as KRAS G12C inhibitors” (Amgen Inc., priority 2018, dated 2022)
